Test results: patent US20030216571A1, “Tricyclic compounds” (priority 1999, published 2003)

| SMILES | melting point |
| --- | --- |
| N#Cc1cccc2c1COc1ccc(/C=C/c3ccc4cc(F)c(F)cc4n3)cc1C2SCCC(=O)O (stereo not shown) | 261 to 264 °C (dec.) |
| O=C([O-])CCSC1c2ccccc2COc2ccc(/C=C/c3ccc4c(F)cccc4n3)cc21.[Na+] (stereo not shown) | 150 to 152 °C |
| O=C([O-])CC1(CSC2c3ccccc3COc3ccc(/C=C/c4ccc5c(F)cc(F)cc5n4)cc32)CC1.[Na+] (stereo not shown) | 149 to 152 °C |
| O=C(O)CCSC1c2cc(/C=C/c3ccc4cc(F)c(Cl)cc4n3)ccc2OCc2c(F)cccc21 (stereo not shown) | 238 to 241 °C |
| COC(=O)c1ccc2c(c1)COc1ccc(/C=C/c3ccc4c(n3)CCCC4)cc1C2SCCC(=O)O (stereo not shown) | 121 to 123 °C |
| O=C(O)CCSC1c2ccccc2COc2ccc(/C=C/c3ccc4c(n3)CCCC4)cc21 (stereo not shown) | 150 to 153 °C |
| O=C([O-])CC1(CSC2c3ccccc3COc3ccc(/C=C/c4ccc5c(n4)CCCC5)cc32)CC1.[Na+] (stereo not shown) | 142 to 145 °C |
| O=C([O-])CC1(CSC2c3ccccc3COc3ccc(/C=C/c4ccc5c(F)cccc5n4)cc32)CC1.[Na+] (stereo not shown) | 142 to 144 °C |
| CC(C)(CC(=O)[O-])SC1c2ccccc2COc2ccc(/C=C/c3ccc4c(n3)CCCC4)cc21.[Na+] (stereo not shown) [Example 27, Sodium 3-{[2-[(E)-2-(5,6,7,8-tetrahydro-2-quinolinyl)ethenyl]-6,11-dihydrodibenz[b,e]oxepin-11-yl]thio}-3-methylbutanoate] | 168 to 175 °C |
| O=C(O)CCSC1c2ccccc2COc2ccc(/C=C/c3ccc4cc(F)c(F)cc4n3)cc21 (stereo not shown) | 213 to 216 °C |
| C[C@H](CSC1c2ccccc2CCc2ccc(/C=C/c3ccc4cc(F)c(F)cc4n3)cc21)C(=O)[O-].[Na+] (stereo partly shown) | 211 to 220 °C |
| O=C([O-])CCSC1c2ccccc2COc2ccc(/C=C/c3ccc4ccc(F)cc4n3)cc21.[Na+] (stereo not shown) | 160 to 163 °C |
| CS(=O)(=O)NC(=O)CCSC1c2ccccc2COc2ccc(/C=C/c3ccc4cc(F)c(F)cc4n3)cc21.[Na] (stereo not shown) | 187 to 192 °C |
| O=C([O-])CCSC1c2ccccc2COc2ccc(/C=C/c3cc(Cl)c4ccccc4n3)cc21.[Na+] (stereo not shown) | 140 to 142 °C |
| O=C([O-])CCSC1c2ccc(F)cc2COc2ccc(/C=C/c3ccc4cc(F)c(F)cc4n3)cc21.[Na+] (stereo not shown) | 243 to 250 °C |
| O=C(O)CC1(CSC2c3ccccc3COc3ccc(/C=C/c4ccc5ccc(Cl)cc5n4)cc32)CC1 (stereo not shown) | 204 to 206 °C |
| O=C([O-])c1cccc(SC2c3ccccc3COc3ccc(/C=C/c4ccc5cc(F)c(F)cc5n4)cc32)c1.[Na+] (stereo not shown) [Example 9 (b), Sodium 3-{[2-[(E)-2-(6,7-difluoro-2-quinolinyl)ethenyl]-6,11-dihydrodibenz[b,e]oxepin-11-yl]thio}benzoate] | 184 to 188 °C |
| O=C([O-])CCSC1c2ccccc2CSc2ccc(/C=C/c3ccc4cc(F)c(F)cc4n3)cc21.[Na+] (stereo not shown) | 144 to 148 °C |
| O=C([O-])CC1(CSC2c3ccccc3COc3ccc(/C=C/c4ccc5ccc(F)cc5n4)cc32)CC1.[Na+] (stereo not shown) | 149 to 152 °C |
| O=S(=O)([O-])CCSC1c2ccccc2COc2ccc(/C=C/c3ccc4cc(F)c(F)cc4n3)cc21.[Na+] (stereo not shown) | 246 to 254 °C |
| O=C([O-])c1ccccc1SC1c2ccccc2COc2ccc(/C=C/c3ccc4cc(F)c(F)cc4n3)cc21.[Na+] (stereo not shown) [Example 8 (b), Sodium 2-{[2-[(E)-2-(6,7-difluoro-2-quinolinyl)ethenyl]-6,11-dihydrodibenz[b,e]oxepin-11-yl]thio}benzoate] | 183 to 186 °C |
| O=C([O-])CCSC1c2ccccc2COc2ccc(/C=C/c3nc4cc(F)ccc4o3)cc21.[Na+] (stereo not shown) | 247 to 250 °C |
| O=C(CSC1c2ccccc2COc2ccc(/C=C/c3ccc4cc(F)c(F)cc4n3)cc21)NS(=O)(=O)C(F)(F)F.[Na] (stereo not shown) | 182 to 186 °C |
| O=C(O)CC1(CSC2c3cc(/C=C/c4ccc5cc(F)c(Cl)cc5n4)ccc3OCc3c(F)cccc32)CC1 (stereo not shown) | 237 to 239 °C |
| O=C([O-])CCSC1c2ccccc2COc2ccc(/C=C/c3nc4cc(F)ccc4s3)cc21.[Na+] (stereo not shown) | > 300 °C |
